Data as given in patent publication US20220313650A1, “METHODS FOR TREATING NEURODEVELOPMENTAL DISORDERS” (The Broad Institute, Inc., priority 2019, published 2022).
Entries after “also recorded” stand apart in the source; their conditions may differ.

Experiments:
[1] = tested on: thalamo-TRN synapses; assay: Optogenetically evoked EPSCs in patched TRN neurons, thalamo-TRN pathway; type: cell-based, mice; conditions: thalamo-TRN synapses, before vs after bath perfusion
Protocol: (§1) For conducting slice electrophysiology analysis, whole-cell patch-clamp recordings were performed using horizontal slices for the rebound bursting assays and angled-coronal thalamocortical slices for the synaptic optogenetics experiments (Agmon et al., 1991). 21-35 day old male C57BL6 mice and Ptchd1 Y/− (knockout) mice were used. Animals were transcardially perfused under isoflurane anesthesia with an ice-cold cutting solution (194 mM Sucrose, 30 mM NaCl, 4.5 mM KCl, 1.2 mM NaH2PO4, 10 mM Glucose, 2 mM MgCl2, 0.2 mM CaCl2, and 26 mM NaHCO3). Mice were then decapitated and the brains were carefully dissected out. Both cerebellum and olfactory bulb were removed from the brain and were placed and glued onto the stage of a Leica Vibratome with the ventral surface down and the pial surface towards the blade. 250 micron thick slices containing the TRN were then collected and recovered in regular artificial cerebrospinal fluid (aCSF; 119 mM NaCl, 2.3 mM KCl, 1 mM NaH2PO4; 11 mM Glucose, 1.3 mM MgCl2, 2.5 mM CaCl2), 26 mM NaHCO3) heated to 32° C. for 10 minutes and then at room temperature for at least 1 hr. All buffers were continuously bubbled with 95% O2/5% C02. Slices were then transferred to a submersion recording chamber where they were perfused with aCSF at a rate of 2 ml/min at room temperature. Patch recording pipettes were pulled using a Flaming/Brown micropipette puller (Sutter Instruments) and Borosilicate glass (KG33, King Precision Glass). The DC resistances were ˜4-6 MΩ. Potassium methanesulfonate based internal solution (140 mM KMeSO3; 10 mM KCl; 10 mM HEPES; 0.1 mM EGTA; 4 mM Mg-ATP; 0.2 mM Na-GTP; 10 mM hosphocreatine) was used. Neurons were visualized using infrared differential interference contrast (IR-DIC) microscopy (Olympus, BX51W1) with an upright microscope digital camera. […]
(§2) After allowing 1-2 weeks for mcherry-dflox.hChR2.EF1.AAV1 expression, acute somatosensory thalamocortical or horizontal brain slices were freshly obtained for in vitro recording and optogenetic stimulation (250 um thick, thalamocortical slices containing TRN from angled-coronal sections; Agmon and Connors, 1991) for optogenetic analysis. In brief, patch clamp recordings in voltage clamp configuration were performed while the Cortico-TRN or Thalamic-TRN pathway was activated by applying a blue LED (400-450 nm) light pulses (Lumen 300-LED Fluorescence Excitation Illumination System). For synaptic stimulation, neurons were held at −70 mV while 0.1-1.5 ms flashes were delivered directly to the recorded cell soma delivered through the 40× water immersion objective. […]

[2] = tested on: Ptchd1 KO mice; assay: Open field test of locomotor activity, Ptchd1 KO mice; type: in vivo
Protocol: (§3) For performing the open field test, mice were allowed to habituate to the behavioral testing room for 1 hour before the experiment. The locomotor activity in mice was evaluated over a 90 minute period in an automated Omnitech Digiscan apparatus (AccuScan Instruments). Locomotor activity was assessed as total distance traveled (m). For drug treatment experiments, mice received an intraperitoneal injection 15 minutes before the assay and then where placed kindly in the left corner, head facing into the corner.
(§4) The effects of mGluR2/3 activation on the locomotor activity of WT mice and Ptchd1 mutant mice were evaluated. In brief, all mice were treated with mGluR2/3 agonist, LY379268, at three different dosages (1 mg/kg, 5 mg/kg and 10 mg/kg) for open-field testing.
(§5) Here, whether mGluR3 activation would rescue the hyperactivity phenotype of Ptchd1 KO mice was evaluated. Locomotor activity estimated as total distance travelled (in) was assessed over a 90 min period in an automated Omnitech Digiscan apparatus. For drug treatment experiments, mice were placed in the open-field arena for 30 minutes prior to Mavalon 63 (5 mg/kg and 10 mg/kg in saline; i.p.), or vehicle injections before being returned to the arena.

[3] = tested on: cortico-TRN synapses; assay: Optogenetically evoked EPSCs in patched TRN neurons, cortico-TRN pathway; type: cell-based, mice; conditions: cortico-TRN synapses, before vs after bath application
Protocol: (§6) For conducting slice electrophysiology analysis, whole-cell patch-clamp recordings were performed using horizontal slices for the rebound bursting assays and angled-coronal thalamocortical slices for the synaptic optogenetics experiments (Agmon et al., 1991). 21-35 day old male C57BL6 mice and Ptchd1 Y/− (knockout) mice were used. Animals were transcardially perfused under isoflurane anesthesia with an ice-cold cutting solution (194 mM Sucrose, 30 mM NaCl, 4.5 mM KCl, 1.2 mM NaH2PO4, 10 mM Glucose, 2 mM MgCl2, 0.2 mM CaCl2, and 26 mM NaHCO3). Mice were then decapitated and the brains were carefully dissected out. Both cerebellum and olfactory bulb were removed from the brain and were placed and glued onto the stage of a Leica Vibratome with the ventral surface down and the pial surface towards the blade. 250 micron thick slices containing the TRN were then collected and recovered in regular artificial cerebrospinal fluid (aCSF; 119 mM NaCl, 2.3 mM KCl, 1 mM NaH2PO4; 11 mM Glucose, 1.3 mM MgCl2, 2.5 mM CaCl2), 26 mM NaHCO3) heated to 32° C. for 10 minutes and then at room temperature for at least 1 hr. All buffers were continuously bubbled with 95% O2/5% C02. Slices were then transferred to a submersion recording chamber where they were perfused with aCSF at a rate of 2 ml/min at room temperature. Patch recording pipettes were pulled using a Flaming/Brown micropipette puller (Sutter Instruments) and Borosilicate glass (KG33, King Precision Glass). The DC resistances were ˜4-6 MΩ. Potassium methanesulfonate based internal solution (140 mM KMeSO3; 10 mM KCl; 10 mM HEPES; 0.1 mM EGTA; 4 mM Mg-ATP; 0.2 mM Na-GTP; 10 mM hosphocreatine) was used. Neurons were visualized using infrared differential interference contrast (IR-DIC) microscopy (Olympus, BX51W1) with an upright microscope digital camera.
To study the changes in the acute somatosensory thalamocortical or horizontal brain areas, 21-25 days old Nex-Cre or VgluT2-Cre mice were anesthetized with isoflurane while placed in a small animal stereotaxic apparatus (David Kopf Instruments, CA, USA) and were injected bilaterally with 280 nl of mcherry-dflox.hChR2.EF1.AAV1 using a Nanoject (Drummond Scientific, Broomall, Pa.) via glass pipettes with […] diameter tips in somatosensory cortex (S1) and ventrobasal thalamic complex (VB). Coordinates from the bregma for S1: AP −0.7, ML 2.4 and DV 1.2 and for VB: AP −1.6, ML 1.5 and DV 3.5. The pipette was held in the final position for 10 min after injection before withdrawal from the brain. The incision was closed with vetbond and after surgery mice were injected with analgesics (SR-Bupronex 1 mg/kg) every 72 hours or as needed. […]
as §2

[4] = tested on: WT mice; assay: Open field test of locomotor activity, WT mice; type: in vivo
Protocol: as §3, §4, §5

[5] = tested on: WT TRN neurons; assay: Whole-cell patch-clamp rebound burst firing in acute brain slices, WT mice; type: cell-based
Protocol: as §6
The recordings were made with a microelectrode amplifier with bridge and voltage clamp modes of operation (Multiclamp 700B, Molecular Devices, San Jose, Calif., USA). Signals were low-pass filtered at 2 kHz and sampled at 10-20 kHz with a Digidata 1440A (Molecular Devices, San Jose, Calif., USA). Data were stored on a computer for subsequent off-line analysis. Cells with the series resistance (Rs, typically 8-12 MΩ) changed by >20% were excluded for data analysis. In addition, cells with Rs more than […] at any time during the recordings were discarded.

[6] = tested on: Ptchd1 KO TRN neurons; assay: Whole-cell patch-clamp rebound burst firing in acute brain slices, Ptchd1 KO mice; type: cell-based; conditions: Mavalon 63
Protocol: as §1, with “temperature.” for “temperature. Patch recording pipettes were pulled using a Flaming/Brown micropipette puller (Sutter Instruments) and Borosilicate glass (KG33, King Precision Glass). The DC resistances were ˜4-6 MΩ. Potassium methanesulfonate based internal solution (140 mM KMeSO3; 10 mM KCl; 10 mM HEPES; 0.1 mM EGTA; 4 mM Mg-ATP; 0.2 mM Na-GTP; 10 mM hosphocreatine) was used. Neurons were visualized using infrared differential interference contrast (IR-DIC) microscopy (Olympus, BX51W1) with an upright microscope digital camera.”

[7] = tested on: wild type mice; assay: EEG/EMG sleep recording, WT mice; type: in vivo; conditions: Mavalon 63 10 mg/kg ip, 12 h recordings, 10 mg/kg
Excerpt: For EEG recording studies, 8- to 12-week-old male mice with C57Bl/6J background, Ptchd1Y/− (knockout) and Ptchd1Y/+ (wild type) were deeply anesthetized with a 1% to 1.5% isoflurane. A screw electroencephalography (EEG) electrode (catalog no. 8403; Pinnacle Technology, Inc.) was implanted into the skull above the primary somatosensory cortex, S1 (AP: −1.8 and ML: +3.0 mm) using a stereotaxic device (David Kopf Instruments). A reference electrode was screwed in the occipital region of the skull and stainless steel electromyography (EMG) electrodes were placed in the nuchal muscle. All the electrodes were connected to a head-mount (catalog no. 8201-SS; Pinnacle Technology) and secured by using dental cement. The mice were allowed to recover for at least 2 weeks. Spontaneous EEG/EMG signals were recorded for 12 hours with a differential amplifier (8200-K1-SL amplifier; Pinnacle Technology). […] Data were analyzed offline using Matlab (R2016a; MathWorks). The spectral power was calculated in 0.5-Hz bins (fast Fourier transform with Hamming window) with artifact-free 4-hour EEG signals from each animal. […]
(§7) EEG and EMG from the frontal and parietal cortex and from the nuchal muscular complex were simultaneously recorded.
(§8) Surface electroencephalography (EEG) and electromyography (EMG) from the frontal and parietal cortex and from the nuchal muscular complex were simultaneously recorded.

[8] = tested on: Ptchd1 KO mice; assay: EEG/EMG sleep recording, Ptchd1 KO mice; type: in vivo; conditions: Ptchd1 KO mice, Mavalon 63 10 mg/kg ip, 12 h recordings; 10 mg/kg
Excerpt: For EEG recording studies, 8- to 12-week-old male mice with C57Bl/6J background, Ptchd1Y/− (knockout) and Ptchd1Y/+ (wild type) were deeply anesthetized with a 1% to 1.5% isoflurane. A screw electroencephalography (EEG) electrode (catalog no. 8403; Pinnacle Technology, Inc.) was implanted into the skull above the primary somatosensory cortex, S1 (AP: −1.8 and ML: +3.0 mm) using a stereotaxic device (David Kopf Instruments). A reference electrode was screwed in the occipital region of the skull and stainless steel electromyography (EMG) electrodes were placed in the nuchal muscle. All the electrodes were connected to a head-mount (catalog no. 8201-SS; Pinnacle Technology) and secured by using dental cement. The mice were allowed to recover for at least 2 weeks. Spontaneous EEG/EMG signals were recorded for 12 hours with a differential amplifier (8200-K1-SL amplifier; Pinnacle Technology). All signals were digitized at a sampling frequency of 1,000 Hz, filtered (1-100 Hz bandpass for EEG; 10-1 kHz bandpass for EMG), and acquired using Sirenia Acquisition program (Pinnacle Technology). Data were analyzed offline using Matlab (R2016a; MathWorks). The spectral power was calculated in 0.5-Hz bins (fast Fourier transform with Hamming window) with artifact-free 4-hour EEG signals from each animal. The power for the spectral band was normalized in reference to the power of the entire EEG spectrum (1-100 Hz) in each animal and averaged across all the animals in the same treatment or drug condition.
as §7, §8

| Structure (SMILES) | paired-pulse ratio (PPR) [1] | locomotor activity ([2]; AZD8529 10, 20, 50 mg/Kg i.p., 90 minutes) | paired-pulse ratio (PPR) [3] | locomotor activity ([4]; WT mice, AZD8529 three dosing levels i.p., 90 minutes) | rebound burst firing, occlusion experiment ([5]; LY379268 applied in the presence of (after pretreatment with) ML337) | number of rebound burst firings ([5]; TRN neurons, ML337 5 μM bath application alone) | number of rebound burst firings ([5]; WT TRN neurons, Mavalon 63 in bath, after somatic hyperpolarization pulse, holding potentials −80 mV to −50 mV) | paired-pulse ratio (PPR) ([1]; listed as mGluR3 PAM) | locomotor activity (total distance travelled) ([2]; Mavalon 63 5 mg/kg and 10 mg/kg i.p., 90 min) | locomotor activity (hyperactivity) ([2]; Mavalon 63 30 mg/kg i.p., p=0.06, Bonferroni's multiple comparisons test) | hyperactivity phenotype, summary over doses ([2]; Mavalon 63 5, 10, 30 mg/Kg i.p., dose-dependent manner) | repetitive rebound bursting [6] | length of NREM sleep bout [7] | paired-pulse ratio (PPR) ([3]; listed as mGluR3 PAM) | length of NREM sleep bout [8] | locomotor activity (total distance travelled) ([4]; WT mice, Mavalon 63 5 mg/kg and 10 mg/kg i.p., 90 min) | spontaneous locomotion activity ([4]; wild type mice, Mavalon 63 30 mg/kg i.p.) |
| --- | --- | --- | --- | --- | --- | --- | --- | --- | --- | --- | --- | --- | --- | --- | --- | --- | --- |
| Cc1cc(-c2nc(CN3CCNCC3)no2)cc2c1C(=O)N(Cc1ccc(OC(F)(F)F)cc1)C2 [AZD8529, 1H-Isoindol-1-one, 2,3-dihydro-7-methyl-5-[3-(1-piperazinylmethyl)-1,2,4-oxadiazol-5-yl]-2-[[4-(trifluoromethoxy)phenyl]methyl]-] | no significant changes in the size of PPR | reduced locomotor activity | significant increase in the paired-pulse ratio (PPR); also recorded: significantly increased | reduced locomotor activity | – | – | – | – | – | – | – | – | – | – | – | – | – |
| COc1ccc(C#Cc2ccc(C(=O)N3CCC[C@@H](O)C3)c(F)c2)cc1 [ML337, (R)-(2-fluoro-4-((- 4-methoxy-phenyl)ethynyl)phenyl) (3-hydroxypiperidin-1-yl)methanone] | – | – | – | – | blocked LY379268-induced enhancement of rebound bursting | decrease in the repetitive rebound bursting; also recorded: reduces the repetitive burst firings; also recorded: number of rebound burst firing was reduced | – | – | – | – | – | – | – | – | – | – | – |
| CN1C(=O)c2cccn2-c2cc(-c3ccc(F)cn3)ccc2C12CC2 [Mavalon 63, 5-Methyl-9-(5-fluoropyridin-2-yl)-spiro [benzo[f]pyrrolo[1,2-a][1,4]diazepine-6,1′-cyclopropan]-4(5H)-one] | no significant changes in the size of PPR | – | not significantly increased | – | – | – | significant increase in repetitive rebound bursting; also recorded: increase in the number of rebound burst firings; also recorded: Significant changes were detected at a membrane holding potentials between −70 mV and −60 mV | no significant changes in the PPR | no significant effect on locomotor activity | trend of reducing the hyperactivity | able to normalize the hyperactivity phenotype | significant increase in repetitive rebound bursting | no change was observed | No significant changes in PPR | specifically increased the Non-REM (NREM) sleep bout length; also recorded: increased the length of NREM sleep bout | no significant effect on locomotor activity | No effect on the spontaneous locomotion activity |
